These results are taken from PubChem BioAssay AID330 (DTP/NCI, 2004).

The assay relates to P388 leukemia ip, CD2F1 mice, survival T/C. Nature of the assay: NCI In Vivo Anticancer Drug Screen. Data for tumor model P388 Leukemia (intraperitoneal) in CD2F1 (CDF1) mice. To be noted: endpoint: median survival time, higher = longer survival. The essentials:
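Mice carrying the transplanted tumor received test compound or vehicle. Survival was recorded in each group, and the value is the treated-group measurement divided by that of the vehicle-treated control group.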

The mark [1] stands for this setting: dose: 60.0 mg/kg/injection, schedule: Q01DX005 (ip), vehicle: saline with Tween-80.
[2] abbreviates: dose: 120.0 mg/kg/injection, schedule: Q01DX005 (ip), vehicle: saline with Tween-80.
[3] abbreviates: dose: 240.0 mg/kg/injection, schedule: Q01DX005 (ip), vehicle: saline with Tween-80.
The mark [4] stands for this setting: dose: 25.0 mg/kg/injection, schedule: Q01DX009 (ip), vehicle: saline with Tween-80.
[5] abbreviates: dose: 50.0 mg/kg/injection, schedule: Q01DX009 (ip), vehicle: saline with Tween-80.
[6] abbreviates: dose: 100.0 mg/kg/injection, schedule: Q01DX009 (ip), vehicle: saline with Tween-80.
The mark [7] stands for this setting: dose: 200.0 mg/kg/injection, schedule: Q01DX009 (ip), vehicle: saline with Tween-80.
Where [8] appears, read: dose: 100.0 mg/kg/injection, schedule: Q01DX001 (ip), vehicle: Klucel (hydroxypropylcellulose) (HPC).
Setting [9] is: dose: 200.0 mg/kg/injection, schedule: Q01DX001 (ip), vehicle: Klucel (hydroxypropylcellulose) (HPC).
Where [10] appears, read: dose: 400.0 mg/kg/injection, schedule: Q01DX001 (ip), vehicle: Klucel (hydroxypropylcellulose) (HPC).
[11] abbreviates: dose: 50.0 mg/kg/injection, schedule: Q01DX005 (ip), vehicle: Klucel (hydroxypropylcellulose) (HPC).
Setting [12] is: dose: 100.0 mg/kg/injection, schedule: Q01DX005 (ip), vehicle: Klucel (hydroxypropylcellulose) (HPC).
Where [13] appears, read: dose: 200.0 mg/kg/injection, schedule: Q01DX005 (ip), vehicle: Klucel (hydroxypropylcellulose) (HPC).

Molecules are shown by their SMILES. “And” between values parts separate entries of the source, which are not always exact repeats. Equal values may be shown once. Toxic doses and inconclusive results are not listed.

For `CN=C(N)NN=C(c1ccc(C)cc1)c1ccc(C)cc1`, the T/C reads like this: (dose: 12.5 mg/kg/injection, schedule: Q04DX002 (ip), vehicle: saline with Tween-80) 91 % of control; (dose: 25.0 mg/kg/injection, schedule: Q04DX002 (ip), vehicle: saline with Tween-80) 104 % of control; (dose: 100.0 mg/kg/injection, schedule: Q04DX002 (ip), vehicle: saline with Tween-80) 96 % of control; (dose: 200.0 mg/kg/injection, schedule: Q04DX002 (ip), vehicle: saline with Tween-80) 100 % of control.

Take `CC(C)(Sc1ccc(Cl)cc1)C(=O)OCCN1CCCCC1`: the T/C under setting [1] was 91 % of control, the T/C under setting [2] was 92 % of control and the T/C under setting [3] is 92 % of control.

As for `COc1cc(Cl)nc(OC)n1`, the T/C by setting is: under setting [4], 108 % of control; under setting [5], 89 % of control; under setting [6], 103 % of control; under setting [7], 103 % of control.

Regarding `CCC(=O)/C=C/c1cc(OC)c(OC)c(OC)c1`, the T/C is 107 % of control under setting [8], 107 % of control under setting [9] and 100 % of control under setting [10].

Regarding `C#CCn1cnc2c(=S)nc[nH]c21`, the T/C (dose: 180.0 mg/kg/injection, schedule: Q01DX009 (ip), vehicle: saline with Tween-80) is 87 % of control.

As for `CC1(CN2CCCCC2)COc2c(Cl)cc(Cl)cc2C1=O` (configuration not stated), the T/C under setting [1] is 94 % of control, the T/C under setting [2] was 94 % of control and the T/C under setting [3] is 86 % of control.

Turning to `COc1ccc(OC/C(C)=N\NS(=O)(=O)c2cc(Cl)c(Cl)cc2Cl)cc1`, the T/C was 96 % of control (dose: 100.0 mg/kg/injection, schedule: Q01DX001 (ip), vehicle: gum acacia); 93 % of control (dose: 200.0 mg/kg/injection, schedule: Q01DX001 (ip), vehicle: gum acacia); 95 % of control (dose: 400.0 mg/kg/injection, schedule: Q01DX001 (ip), vehicle: gum acacia).

Consider `COC(=O)CN1C(=O)c2cccc3cc([N+](=O)[O-])cc(c23)C1=O`, for which the T/C under setting [1] was 100 % of control, the T/C under setting [2] is 98 % of control and the T/C under setting [3] was 90 % of control.

`CCCCOC(C(=O)OCCN(CC)CC)(c1ccccc1)c1ccccc1`: the T/C is 108 % of control under setting [11] and 100 % of control under setting [12].

In the case of `COc1ccc(-c2cc(C(=O)Nc3cc(Cl)cc(Cl)c3)c3ccccc3n2)cc1`, the T/C (dose: 50.0 mg/kg/injection, schedule: Q01DX005 (ip), vehicle: saline with Tween-80) is 91 % of control; the T/C (dose: 100.0 mg/kg/injection, schedule: Q01DX005 (ip), vehicle: saline with Tween-80) was 93 % of control; the T/C (dose: 200.0 mg/kg/injection, schedule: Q01DX005 (ip), vehicle: saline with Tween-80) was 91 % of control.

As for `COc1cc(CCN=Cc2cc(Cl)cc(Cl)c2O)c([N+](=O)[O-])cc1OC`, the T/C is 93 % of control under setting [11], 102 % of control under setting [12] and 111 % of control under setting [13].

Regarding `CCC12C=CCN3CC[C@@]4(c5cc([C@@]6(C(=O)OC)CC7CN(CCc8c6[nH]c6ccccc86)C[C@](O)(CC)C7)c(OC)cc5N(C)[C@H]4[C@]4(OCOC4=O)[C@@H]1O)C32` (some centres not stated), the T/C by setting is: (dose: 0.5 mg/kg/injection, schedule: Q01DX005 (ip), vehicle: saline) 102 % of control; (dose: 1.0 mg/kg/injection, schedule: Q01DX005 (ip), vehicle: saline) 91 % of control; (dose: 2.0 mg/kg/injection, schedule: Q01DX005 (ip), vehicle: saline) 92 % of control.

Take `CC1(C)C(=O)OC(n2cc(F)c(=O)[nH]c2=O)C1=O` (configuration not stated): the T/C runs as follows: (dose: 11.25 mg/kg/injection, schedule: Q04DX002 (ip), vehicle: distilled water + Tween-80) 105 % of control; (dose: 22.5 mg/kg/injection, schedule: Q04DX002 (ip), vehicle: distilled water + Tween-80) 105 % of control; (dose: 45.0 mg/kg/injection, schedule: Q04DX002 (ip), vehicle: distilled water + Tween-80) 116 % of control; (dose: 45.0 mg/kg/injection, schedule: Q04DX002 (ip), vehicle: saline with Tween-80) 110 % of control; (dose: 90.0 mg/kg/injection, schedule: Q04DX002 (ip), vehicle: distilled water + Tween-80) 116 % of control; (dose: 360.0 mg/kg/injection, schedule: Q04DX002 (ip), vehicle: distilled water + Tween-80) 90 % of control. For the same compound, the T/C (dose: 360.0 mg/kg/injection, schedule: Q04DX002 (ip), vehicle: saline with Tween-80) was 160 % of control.

As to `Cc1ccc(S(=O)(=O)NNC(=O)c2ccccc2Nc2cccc(Br)c2)cc1`, the T/C runs as follows: under setting [8], 97 % of control; under setting [9], 97 % of control; under setting [10], 98 % of control.

As to `COC(=O)c1ccc(SSc2ccc(C(=O)OC)cc2[N+](=O)[O-])c([N+](=O)[O-])c1`, the T/C is 91 % of control under setting [6]; 90 % of control (dose: 100.0 mg/kg/injection, schedule: Q04DX003 (ip), vehicle: saline with Tween-80); 100 % of control under setting [7]; 95 % of control (dose: 200.0 mg/kg/injection, schedule: Q04DX003 (ip), vehicle: saline with Tween-80); 91 % of control (dose: 400.0 mg/kg/injection, schedule: Q01DX009 (ip), vehicle: saline with Tween-80); 90 % of control (dose: 400.0 mg/kg/injection, schedule: Q04DX003 (ip), vehicle: saline with Tween-80).

Consider `Clc1ccc2nc(C(Cl)(Cl)Cl)nc(NCCN3CCCCC3)c2c1`, for which the T/C reads like this: under setting [5], 100 % of control; under setting [6], 100 % of control; under setting [7], 90 % of control.

For the compound `CCOC(=O)c1c(NCCO)c(-c2ccccc2)c(=O)n2c1[nH]c1ccccc12`, the T/C is 100 % of control (dose: 100.0 mg/kg/injection, schedule: Q01DX001 (ip), vehicle: saline with Tween-80); 99 % of control (dose: 200.0 mg/kg/injection, schedule: Q01DX001 (ip), vehicle: saline with Tween-80); 87 % of control (dose: 400.0 mg/kg/injection, schedule: Q01DX001 (ip), vehicle: saline with Tween-80).

Regarding `COc1ccc2c3c(ccc2c1)C(=O)/C(=C\O)CC3`, the T/C was 103 % of control (dose: 12.5 mg/kg/injection, schedule: Q01DX005 (ip), vehicle: Klucel (hydroxypropylcellulose) (HPC)); 93 % of control (dose: 25.0 mg/kg/injection, schedule: Q01DX005 (ip), vehicle: Klucel (hydroxypropylcellulose) (HPC)); 95 % of control and 97 % of control under setting [11].

In the case of `O=C(CBr)c1cccc([N+](=O)[O-])c1`, the T/C reads like this: (dose: 6.25 mg/kg/injection, schedule: Q01DX009 (ip), vehicle: saline with Tween-80) 101 % of control; (dose: 12.5 mg/kg/injection, schedule: Q01DX009 (ip), vehicle: saline with Tween-80) 100 % of control; under setting [4], 109 % of control; under setting [5], 100 % of control.

Take `CC[Si](/C=C(/C)C(C)(C)C)(CC)CC`: the T/C by setting is: under setting [5], 94 % of control; under setting [6], 96 % of control; under setting [7], 113 % of control.

Regarding `CCOC1NC(=O)C(OCC)NC1=O` (configuration not stated), the T/C by setting is: under setting [11], 96 % of control; under setting [12], 99 % of control; under setting [13], 97 % of control.

For the compound `C[Si](C)(C)CNCc1ccccc1`, the T/C is, setting by setting: (dose: 15.0 mg/kg/injection, schedule: Q01DX005 (ip), vehicle: saline) 108 % of control; (dose: 30.0 mg/kg/injection, schedule: Q01DX005 (ip), vehicle: saline) 105 % of control; (dose: 60.0 mg/kg/injection, schedule: Q01DX005 (ip), vehicle: saline) 102 % of control and 97 % of control.

As to `COc1cccc2c1C(=O)c1c(O)c3c(c(O)c1C2=O)C[C@@](O)(C(C)=O)C[C@@H]3OC1CC(N2CCOCC2C#N)C(O)C(C)O1` (some centres not stated), the T/C is 191 % of control (dose: 0.2 mg/kg/injection, schedule: Q04DX003 (ip), vehicle: water); 187 % of control (dose: 0.39 mg/kg/injection, schedule: Q04DX003 (ip), vehicle: distilled water + Tween-80); 207 % of control (dose: 0.39 mg/kg/injection, schedule: Q04DX003 (ip), vehicle: water); 95 % of control (dose: 0.78 mg/kg/injection, schedule: Q04DX003 (ip), vehicle: water).
